Assay results taken from PMC12466451 (Antibiotics, 2025).

Test: Surfactin C metabolism study: metabolic stability in liver microsomes with NADPH
Format: in vitro ADME, chicken
Details: for percentage of initial concentration remaining after incubation with microsomes: chicken liver microsomes 0.5 mg/mL, NADPH, 1.0 µM, 37 °C, 120 min; for k (elimination rate constant) / t1/2: chicken liver microsomes; for k (elimination rate constant): slope of ln-concentration versus time plot, 0-120 min; for t1/2: t1/2 = ln(2)/k
Protocol: After determining the presence of surfactin C analogues in F1, BPR-17 and BPR-16, an in vitro metabolism assay was conducted to investigate the bioavailability and stability of these compounds. This study involved incubating the bioactive metabolites with liver microsomes obtained from chickens to predict and evaluate their potential efficacy and bioavailability once digested. The microsomal assay was performed by first harvesting the chicken microsomes from the liver. Once obtained, these were incubated with the surfactin C compounds in the presence of NADPH, which serves as an essential cofactor for cytochrome P450 enzymes. The degradation of surfactin C analogues over time was monitored by measuring their peak areas using LC-MS/MS [29]. Additionally, a positive control compound (verapamil) was used to confirm the metabolic activity of the liver microsomes.
Preparation of microsomes from liver tissue was performed according to the protocols developed by Knights et al. 2016 [45]. Livers from chickens approximately 42 days old were obtained from Golden Cockerel poultry processors (Mount Cotton, QLD, Australia). Immediately after harvesting, the livers were washed in 1.15% KCl in lab grade H2O to remove excess blood and transported to the laboratory on ice for processing. To prepare the microsomes, 10 g of liver tissue was homogenized in buffer (10 mM potassium phosphate, pH 7.4) using an Ultraturrax-style homogeniser with three 30-s bursts, cooling the sample on ice between each burst. The homogenate was then centrifuged at 7000× g for 10 min at 4 °C. The crude pellet was discarded, and the supernatant was further separated by ultracentrifugation at 105,000× g for 60 min at 4 °C. The supernatant was decanted, and the pellet was rinsed with 1 mL of microsome buffer. The rinsing and ultracentrifugation process was repeated twice, and the resulting pellet was resuspended in microsome storage buffer and stored at −80 °C until further use. A Bradford assay was used to determine the concentration of the protein in the sample [46].
The test compounds C13-C1_6 surfactin C (10.0 mM) were prepared in DMSO, and the metabolic stability of test compounds was determined in triplicate in an oscillating water bath (Grant) at 37 °C and 150 RPM [25]. Positive control (verapamil; 0.001 mM) and negative control (without NADPH regeneration system) incubations were conducted concurrently. Tubes containing potassium phosphate buffer (100 mM) at pH 7.4, microsomal protein stock solution (0.5 mg/mL), test compound solution (1.0 µM) and glucose-6-phosphate dehydrogenase (1 IU/mL) were preincubated at 37 °C for 5 min prior to the reaction being initiated by the addition of 25 µL of a 20× stock of an NADPH regeneration system (NRS) containing NADP (1.3 mM). The total incubation volume was 0.5 mL. The mixture was then incubated at 37 °C in an oscillating water bath (Grant) at 150 RPM for 0, 10, 20, 30, 60, and 120 min. At each time point, reactions were terminated by the addition of 150 µL of ice-cold acetonitrile containing cyclosporin A (60 ng/mL) as an internal standard for test compounds or clotrimazole (50 ng/mL) for verapamil. The test tubes were centrifuged at 13,000× g for 5 min, and ~100 µL of supernatant was transferred to polypropylene 96-well plates for LC-MS/MS analysis using a Waters ALLIANCE HPLC system coupled to a Waters Quattro Micro triple quadrupole mass spectrometer (Milford, MA, USA). Chromatographic separation was achieved using a Phenomenex HPLC C18 column (4.6 × 50 mm, 3 µm). Mass spectrometric detection was performed in negative ion multiple reaction monitoring mode with argon as the collision gas. Data acquisition and processing were carried out using MassLynx software (version 4.1, Waters). The half-life (t1/2) of each test compound was calculated using the equation t1/2 = ln(2)/k, where k is the elimination rate constant derived from the slope obtained from the ln-concentration versus time plot.

Substance | percentage of initial concentration remaining after incubation with microsomes | k (elimination rate constant) | t1/2
C15 surfactin C | ~99% | 0.0008 | 14.438 h
C16 surfactin C | ~92% | 0.0007 | 16.5 h
C13 surfactin C | approximately 84% |  | 19.25 h
C14 surfactin C | ~95% |  | 
